Measurements reported in PMC3530156 (Chemistry & biology, 2012).

Columns and labels:
[1] = test system: Bacillus subtilis PY79; experiment: MIC, overnight culture/serial dilution assay; format: cell-based; conditions: overnight serial dilution culture, purified compound
[2] = test system: B. subtilis BSZ-9 (L11 knockout); conditions: colonies of M1152 + pSETGE1 overlaid with B. subtilis BSZ-9, resistant to 26-membered thiopeptides

GE37468
MIC B. subtilis [1]: 0.016 µg/mL
resistance of overlaid strain [2]: Neither BSZ-9 nor B. cereus ATCC 15479 exhibited resistance
